# From PubChem BioAssay AID1259411 (Chemical Carcinogenesis Research Information System (CCRIS), 2018)
# Calls of active or inactive are those of the source. How the calls were made is not given here.
# Tested on: rodent carcinogenicity bioassays, tumor incidence
# Assay: CCRIS carcinogenicity studies
# Method in brief: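 NCI-built, expert-reviewed records of carcinogenicity and related test outcomes (mutagenicity, tumor promotion/inhibition) compiled from published and report sources, historical span 1985-2011, not updated.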
smiles,measurement,setting,value
Cc1cn([C@H]2C[C@H](N=[N+]=[N-])[C@@H](CO)O2)c(=O)[nH]c1=O,carcinogen call,"Species: MOUSE, Strain/Sex: B6C3F1/FEMALE, Route: GAVAGE, Dose: 0, 30, 60, 120 MG/KG BW IN 0.5% METHYLCELLULOSE ADMINISTERED IN TWO EQUAL DOSES DAILY 5 D/WK FOR 105 WK (STUDY DURATION:, Dose: 0, 30, 60, 120 MG/KG BW IN 0.5% METHYLCELLULOSE ADMINISTERED IN TWO EQUAL DOSES DAILY 5 D/WK FOR 105 WK (STUDY DURATION:, Tumor Site: Type of Lesion: VAGINA: SQUAMOUS CELL CARCINOMA, SQUAMOUS CELL PAPILLOMA OR CARCINOMA",active; positive
same,carcinogen call,"Species: MOUSE, Strain/Sex: B6C3F1/MALE, Route: GAVAGE, Dose: 0, 30, 60, 120 MG/KG BW IN 0.5% METHYLCELLULOSE ADMINISTERED IN TWO EQUAL DOSES DAILY 5 D/WK FOR 105 WK (STUDY DURATION:, Dose: 0, 30, 60, 120 MG/KG BW IN 0.5% METHYLCELLULOSE ADMINISTERED IN TWO EQUAL DOSES DAILY 5 D/WK FOR 105 WK (STUDY DURATION:, Tumor Site: Type of Lesion: KIDNEY: RENAL TUBULE ADENOMA, RENAL TUBULE CARCINOMA, HARDERIAN GLAND: ADENOMA, ADENOMA OR CARCINOMA",equivocal
same,carcinogen call,"Species: MOUSE, Strain/Sex: CD-1/FEMALE, Route: GAVAGE, Dose: 0, 30, 60, 120 MG/KG/D ON DAY 91 OF STUDY DOSES LOWERED TO 20, 30, 40 MG/KG (STUDY DURATION: 22 MO), Dose: 0, 30, 60, 120 MG/KG/D ON DAY 91 OF STUDY DOSES LOWERED TO 20, 30, 40 MG/KG (STUDY DURATION: 22 MO), Tumor Site: Type of Lesion: VAGINA: SQUAMOUS CELL CARCINOMA",active; positive
same,carcinogen call,"Species: MOUSE, Strain/Sex: CD-1/FEMALE, Route: INTRAVAGINAL, Dose: 0, 5, 20 MG/ML IN 0.9% SALINE ADMINISTERED AT 0.2 ML 2/D (STUDY DURATION: 24 MO), Dose: 0, 5, 20 MG/ML IN 0.9% SALINE ADMINISTERED AT 0.2 ML 2/D (STUDY DURATION: 24 MO), Tumor Site: Type of Lesion: VAGINA: SQUAMOUS CELL CARCINOMA",active; positive
same,carcinogen call,"Species: MOUSE, Strain/Sex: CD-1/MALE, Route: GAVAGE, Dose: 0, 30, 60, 120 MG/KG/D ON DAY 91 OF STUDY DOSES LOWERED TO 20, 30, 40 MG/KG/D (STUDY DURATION: 19 MO), Dose: 0, 30, 60, 120 MG/KG/D ON DAY 91 OF STUDY DOSES LOWERED TO 20, 30, 40 MG/KG/D (STUDY DURATION: 19 MO)",inactive; negative
same,carcinogen call,"Species: Mouse, Strain/Sex: Swiss (CD-1)/Female F1 Generation, Route: In utero, Dose: 0, 50, 100, 200, 300 mg/kg by gavage to F0 generation females 7 d/wk for 29-39 d (delivery day): females mated with unex, Dose: 0, 50, 100, 200, 300 mg/kg by gavage to F0 generation females 7 d/wk for 29-39 d (delivery day): females mated with unex",inactive; negative; decreased litter size and fertility rates at two highest doses
same,carcinogen call,"Species: Mouse, Strain/Sex: Swiss (CD-1)/Male F1 Generation, Route: In utero, Dose: 0, 50, 100, 200, 300 mg/kg by gavage to F0 generation females 7 d/wk for 29-39 d (delivery day): females mated with unex, Dose: 0, 50, 100, 200, 300 mg/kg by gavage to F0 generation females 7 d/wk for 29-39 d (delivery day): females mated with unex, Tumor Site: Type of Lesion: Lung, Alveolar/Bronchiolar Carcinoma (5/50, 11/50, 6/50, 11/37, 8/32), Alveolar/Bronchiolar adenoma or carcinoma (14/50,, Tumor Site: Type of Lesion: Lung, Alveolar/Bronchiolar Carcinoma (5/50, 11/50, 6/50, 11/37, 8/32), Alveolar/Bronchiolar adenoma or carcinoma (14/50",active; positive; decreased litter size and fertility rates at two highest doses
same,carcinogen call,"Species: RAT, Strain/Sex: STRAIN-CD/MALE, Route: GAVAGE, Dose: 0, 80, 220, 600 MG/KG/D, HIGH DOSE LOWERED TO 450 MG/KG THEN 300 MG/KG ON DAYS 91 AND 278, RESPECTIVELY (STUDY DURATION:, Dose: 0, 80, 220, 600 MG/KG/D, HIGH DOSE LOWERED TO 450 MG/KG THEN 300 MG/KG ON DAYS 91 AND 278, RESPECTIVELY (STUDY DURATION:",inactive; negative
CC1(C)[C@H](C(=O)O[C@H](C#N)c2cccc(Oc3ccccc3)c2)[C@@H]1C=C(Br)Br,carcinogen call,"Species: MOUSE, Strain/Sex: C57BL/FEMALE, Route: INTRAGASTRIC, Dose: 0, 1, 4, 8 MG/KG IN ARACHIS OIL 5 D/WK FOR 104 WK (STUDY DURATION: 120 WK), Dose: 0, 1, 4, 8 MG/KG IN ARACHIS OIL 5 D/WK FOR 104 WK (STUDY DURATION: 120 WK)",inactive; negative
same,carcinogen call,"Species: MOUSE, Strain/Sex: C57BL/MALE, Route: INTRAGASTRIC, Dose: 0, 1, 4, 8 MG/KG IN ARACHIS OIL 5 D/WK FOR 104 WK (STUDY DURATION: 120 WK), Dose: 0, 1, 4, 8 MG/KG IN ARACHIS OIL 5 D/WK FOR 104 WK (STUDY DURATION: 120 WK)",inactive; negative
same,carcinogen call,"Species: MOUSE, Strain/Sex: SWISS/MALE, FEMALE, Route: DERMAL, Dose: 0, 1, 2, 4 MG/KG BW IN 200 µL ACETONE 3/WK FOR 32 WK (STUDY DURATION: 32 WK), Dose: 0, 1, 2, 4 MG/KG BW IN 200 µL ACETONE 3/WK FOR 32 WK (STUDY DURATION: 32 WK)",inactive; negative
same,carcinogen call,"Species: Mouse, Strain/Sex: Crl:CD-1(ICR)BR/Female (50/Group), Route: Oral, Dose: 0, 10, 100, 1000, 2000 ppm in feed for 97 wk, Dose: 0, 10, 100, 1000, 2000 ppm in feed for 97 wk",inactive; negative
same,carcinogen call,"Species: Mouse, Strain/Sex: Crl:CD-1(ICR)BR/Male (50/Group), Route: Oral, Dose: 0, 10, 100, 1000, 2000 ppm in feed for 97 wk, Dose: 0, 10, 100, 1000, 2000 ppm in feed for 97 wk",inactive; negative
same,carcinogen call,"Species: RAT, Strain/Sex: BDVI/FEMALE, Route: INTRAGASTRIC, Dose: 0, 3, 6 MG/KG IN ARACHIS OIL 5 D/WK FOR 104 WK (STUDY DURATION: 120 WK), Dose: 0, 3, 6 MG/KG IN ARACHIS OIL 5 D/WK FOR 104 WK (STUDY DURATION: 120 WK), Tumor Site: Type of Lesion: THYROID: ADENOMA",active; positive
same,carcinogen call,"Species: RAT, Strain/Sex: BDVI/MALE, Route: INTRAGASTRIC, Dose: 0, 3, 6 MG/KG IN ARACHIS OIL 5 D/WK FOR 104 WK (STUDY DURATION: 120 WK), Dose: 0, 3, 6 MG/KG IN ARACHIS OIL 5 D/WK FOR 104 WK (STUDY DURATION: 120 WK), Tumor Site: Type of Lesion: THYROID: ADENOMA",active; positive
same,carcinogen call,"Species: Rat, Strain/Sex: Crl:CD(SD)BR/Female (50/Group), Route: Oral, Dose: 0, 25, 125, 500, 800 ppm in feed for 2 yr, Dose: 0, 25, 125, 500, 800 ppm in feed for 2 yr",inactive; negative
same,carcinogen call,"Species: Rat, Strain/Sex: Crl:CD(SD)BR/Male (50/Group), Route: Oral, Dose: 0, 25, 125, 500, 800 ppm in feed for 2 yr, Dose: 0, 25, 125, 500, 800 ppm in feed for 2 yr",inactive; negative
CCCCN(CCCC)N=O,carcinogen call,"Species: GUINEA PIG, Route: ORAL, Tumor Site: Type of Lesion: LIVER",active; positive
same,carcinogen call,"Species: HAMSTER, Route: GAVAGE, Tumor Site: Type of Lesion: LUNG, RESPIRATORY TRACT, TRACHEA, FORESTOMACH, Tumor Site: Type of Lesion: LUNG, RESPIRATORY TRACT, TRACHEA, FORESTOMACH",active; positive
same,carcinogen call,"Species: HAMSTER, Route: INTRAPERITONEAL, Tumor Site: Type of Lesion: RESPIRATORY TRACT",active; positive
same,carcinogen call,"Species: HAMSTER, Route: SUBCUTANEOUS, Tumor Site: Type of Lesion: TRACHEA, URINARY BLADDER, FORESTOMACH, RESPIRATORY TRACT, Tumor Site: Type of Lesion: TRACHEA, URINARY BLADDER, FORESTOMACH, RESPIRATORY TRACT",active; positive
same,carcinogen call,"Species: MOUSE, Route: INTRAVENOUS, Tumor Site: Type of Lesion: HEMATOPOIETIC SYSTEM (LEUKEMIA)",active; positive
same,carcinogen call,"Species: MOUSE, Route: ORAL, Tumor Site: Type of Lesion: ESOPHAGUS, FORESTOMACH, LIVER, URINARY BLADDER, Tumor Site: Type of Lesion: ESOPHAGUS, FORESTOMACH, LIVER, URINARY BLADDER",active; positive
same,carcinogen call,"Species: MOUSE, Route: SUBCUTANEOUS, Tumor Site: Type of Lesion: URINARY BLADDER, LUNG",active; positive
same,carcinogen call,"Species: RABBIT, Route: SUBCUTANEOUS, Tumor Site: Type of Lesion: URINARY BLADDER",active; positive
same,carcinogen call,"Species: RAT, Route: ORAL, Tumor Site: Type of Lesion: ESOPHAGUS, LIVER, URINARY BLADDER, Tumor Site: Type of Lesion: ESOPHAGUS, LIVER, URINARY BLADDER",active; positive
same,carcinogen call,"Species: RAT, Route: SUBCUTANEOUS, Tumor Site: Type of Lesion: URINARY BLADDER, LUNG",active; positive
COc1ccc(O)c(C(C)(C)C)c1,carcinogen call,"Species: HAMSTER, Strain/Sex: SYRIAN/MALE, Route: ORAL, Dose: 1% IN DIET FOR 24 WK (STUDY DURATION: 24 WK), Tumor Site: Type of Lesion: FORESTOMACH: PAPILLOMA",active; positive
CCN(CC(=O)O)N=O,carcinogen call,"Species: MOUSE, Strain/Sex: BALB/C/MALE, Route: ORAL, Dose: 0, 1000, 2000 PPM IN DRINKING WATER FOR 2 WK (STUDY DURATION: 52 WK), Dose: 0, 1000, 2000 PPM IN DRINKING WATER FOR 2 WK (STUDY DURATION: 52 WK)",inactive; negative
same,carcinogen call,"Species: RAT, Strain/Sex: WISTAR/MALE, Route: ORAL, Dose: 0, 1000, 2000 PPM IN DRINKING WATER FOR 2 WK (STUDY DURATION: 52 WK), Dose: 0, 1000, 2000 PPM IN DRINKING WATER FOR 2 WK (STUDY DURATION: 52 WK)",inactive; negative
